Measured values from US20230357242A1, “COMPOUND AS AKT KINASE INHIBITOR” (CHIA TAI TIANQING PHARMACEUTICAL GROUP CO., LTD., priority 2020, published 2023).

Key:
[1] = system: AN3CA human endometrial cancer cells; test: Pharmacodynamics in subcutaneous xenograft tumor nude mouse model of AN3CA human endometrial cancer cells; type: in vivo, BALB/C nude mice; settings: for in vivo tumor inhibition effect (in words) / Relative tumor volume (mean ± SD) / Tumor volume (mm^3) (mean ± SD): AN3CA xenograft; for in vivo tumor inhibition effect (in words): 20 mg/kg i.g. qd; for Relative tumor volume (mean ± SD) / Tumor volume (mm^3) (mean ± SD) / Weight change rate (%) (mean ± SD) / TGI (%) / T/C (%): day 14, 20 mg/kg i.g. qd 14 d; for Weight change rate (%) (mean ± SD): body weight; for TGI (%): by tumor weight, ** p < 0.01 vs control; for T/C (%): relative tumor proliferation rate
Method: SPF-grade female BALB/C nude mice (from Changzhou Cavens Laboratory Animal Ltd.) were inoculated subcutaneously at the right side armpit with 5×10^6 AN3CA cells (sourec: Nanjing Cobioer Biosciences Co., Ltd.).
The day of grouping was determined as do, and the intragastric administration was started on the grouping day, and the administration volume was 10 mL/kg. The solvent was: D5W (5% glucose solution). The tumor volume was measured 2-3 times a week, meanwhile, the mice were weighed and the data were recorded; the general behavior of the mice was observed and recorded every day. After the experiment was completed, the tumors were removed, weighed and photographed.
Calculation formula for tumor volume: Tumor volume (mm^3)=½×(a×b^2) (where a represents long diameter and b represents short diameter).
Relative tumor proliferation rate (T/C %) refers to the percentage of the relative tumor volume of the treatment and control groups at a certain time point. The calculation formula is as follows: T/C %=TRTV/CRTV×100% (TRTv: mean relative tumor volume (RTV) for treatment group; CRTV: mean RTV for vehicle control group; RTV=TVt/TV0, where TV0 is the tumor volume at grouping, TVt is the tumor volume after treatment).
The calculation formula for weight change rate (WCR) (%) is: WCR=(Wtt−Wt0)/Wt0×100%, where Wt0 is the body weight of the animal at grouping (i.e., d0), Wtt is the body weight of the animal at each measurement.
All experimental results are expressed as mean±SD (mean±standard deviation). The relative tumor volume of the treatment group was compared with that of the control group for any significant difference by T tests, wherein p<0.01 indicates a very significant difference.

[2] = Pharmacokinetic evaluation in mice; type: in vivo; parameters: Cl: unit not given here; settings: ICR mice; for AUC(0-inf) / AUC(0-t) / Cmax / Tmax / bioavailability / MRT last / Vd: mouse, plasma; for bioavailability: IG 10 mg/kg vs IV 1 mg/kg, read-out: Absolute bioavailability F %; for MRT last: read-out: MRT(0-t)
Method: ICR mice, weight 18-22 g, after adaption for 3-5 days, were randomly divided into 4 groups of 9 mice, each group was intragastrically (IG) administered with compound 28 or compound 30 at a dose of 10 mg/kg, or intravenously (IV) administered with compound 28 or compound 30 at a dose of 1 mg/kg.
The animals to be tested (ICR mice) were fasted for 12 h before administration and food was provided 4 h after administration, and water was freely drunk before and after the experiment and during the experiment.
(§1) After intragastric administration, about 0.1 mL of blood was taken from eye sockets at 15 min, 30 min, 1 h, 2 h, 3 h, 4 h, 6 h, 8 h, 10 h, and 24 h; after intravenous injection, about 0.1 mL of blood was taken from eye sockets at 5 min, 10 min, 30 min, 1 h, 2 h, 4 h, 6 h, 8 h, 10 h, and 24 h; each mouse was collected at 3-4 time points and 3 mice were collected at each time point, whole blood was collected, placed in centrifuge tubes containing EDTA-K2, and stored at 4° C. within 1 h, and the plasma was separated off by centrifugation at 4° C. and 4000 rpm for 10 min. All the plasma samples were collected and immediately stored at −20° C. for testing. 30 μL of the plasma sample to be tested and a standard curve sample were pipetted and added with 300 μL of acetonitrile solution containing an internal standard (20 ng/mL diazepam), shaken and mixed well for 5 min, and centrifuged at 13,000 rpm for 10 min. 80 μL of supernatant was taken and diluted with 80 μL of ultrapure water. After being mixed well, 2 μL of the resulting sample was taken for liquid chromatography-mass determination, and a chromatogram was recorded.
Oral and intravenous exposure of the compound of the present application was evaluated by in vivo pharmacokinetic experiment in mice.

[3] = Pharmacokinetic evaluation in rats; type: in vivo; parameters: Cl: unit not given here; settings: SD rats; for bioavailability / AUC(0-inf) / AUC(0-t) / Cmax / Tmax / MRT last / Vd: rat, plasma; for bioavailability: oral, IG 10 mg/kg vs IV 1 mg/kg, read-out: Absolute bioavailability F %; for MRT last: read-out: MRT(0-t)
Method: SD rats, weight 180-220 g, after adaption for 7 days, were randomly divided into 4 groups of 3 […], each group was intragastrically (IG) administered with compound 28 or compound 30 at a dose of 10 mg/kg, or intravenously (IV) administered with compound 28 or compound 30 at a dose of 1 mg/kg. The animals to be tested (SD rats) were fasted for 12 h before administration and food was provided 4 h after administration, and water was freely drunk before and after the experiment and during the experiment.
as §1, with “h;” for “h; each mouse was collected at 3-4 time points and”, “rats” for “mice”
Oral and intravenous exposure of the compound of the present application was evaluated by in vivo pharmacokinetic experiment in rats.

Row | SMILES | in vivo tumor inhibition effect (in words) [1] | Relative tumor volume (mean ± SD) [1] | Tumor volume (mm^3) (mean ± SD) [1] | Weight change rate (%) (mean ± SD) [1] | TGI (%) [1] | T/C (%) [1] | t1/2z ([2]; IG 10 mg/kg) | Cl ([2]; IV 1 mg/kg) | t1/2z ([2]; IV 1 mg/kg) | AUC(0-inf) ([2]; po, IG 10 mg/kg) | AUC(0-t) ([2]; po, IG 10 mg/kg) | Cmax ([2]; po, IG 10 mg/kg) | Tmax ([2]; po, IG 10 mg/kg) | bioavailability ([2]; po) | MRT last ([2]; po, IG 10 mg/kg) | AUC(0-inf) ([2]; IV 1 mg/kg) | AUC(0-t) ([2]; IV 1 mg/kg) | Vd ([2]; IV 1 mg/kg) | MRT last ([2]; IV 1 mg/kg) | t1/2z ([3]; IG 10 mg/kg) | further results
1 | CC(=O)N1CC2(C1)CN(c1cccc(-c3ccc4nc(-c5cccnc5N)n(-c5ccc(C6(N)CCC6)cc5)c4n3)c1F)C2 [Compound 28] | strong in vivo tumor inhibition effects | 10.5 ± 3.4 | 1267 ± 249 mm^3 | 4.9 ± 2.7% | 53.2%** | 44.3% | 5.31 h | 3.95 | 1.74 h | 896 ng·h/mL | 871 ng·h/mL | 140 ng/mL | 2 h | 35.4% | 5.28 h | 253 ng·h/mL | 246 ng·h/mL | 9.92 L/kg | 1.49 h | 3.93 ± 1.46 h | Cl ([3]; IV 1 mg/kg): 5.75 ± 0.146; t1/2z ([3]; IV 1 mg/kg): 5.9 ± 2.11 h; bioavailability [3]: 25%; AUC(0-inf) ([3]; po, IG 10 mg/kg): 372 ± 197 ng·h/mL; AUC(0-t) ([3]; po, IG 10 mg/kg): 362 ± 195 ng·h/mL; Cmax ([3]; po, IG 10 mg/kg): 32.6 ± 12.4 ng/mL; Tmax ([3]; po, IG 10 mg/kg): 4.67 ± 1.15 h; MRT last ([3]; po, IG 10 mg/kg): 7.38 ± 0.43 h; AUC(0-inf) ([3]; IV 1 mg/kg): 174 ± 4.37 ng·h/mL; AUC(0-t) ([3]; IV 1 mg/kg): 145 ± 11.1 ng·h/mL; Vd ([3]; IV 1 mg/kg): 48.8 ± 16.8 L/kg; MRT last ([3]; IV 1 mg/kg): 2.12 ± 0.099 h
2 | Nc1ncccc1-c1nc2ccc(-c3cccc(N4CCC(N5CCCC5=O)CC4)c3F)nc2n1-c1ccc(C2(N)CCC2)cc1 [Compound 30] | strong in vivo tumor inhibition effects | 9.7 ± 2.2 | 1242 ± 354 mm^3 | 2.3 ± 3.5% | 58.4%** | 40.9% | 6.58 h | 2.08 | 1.48 h | 2880 ng·h/mL | 2770 ng·h/mL | 542 ng/mL | 2 h | 58.2% | 5.01 h | 482 ng·h/mL | 476 ng·h/mL | 4.43 L/kg | 1.04 h | 5.43 ± 1.82 h | Cl ([3]; IV 1 mg/kg): 7.23 ± 0.496; t1/2z ([3]; IV 1 mg/kg): 7.73 ± 0.440 h; bioavailability [3]: 35.5%; AUC(0-inf) ([3]; po, IG 10 mg/kg): 383 ± 106 ng·h/mL; AUC(0-t) ([3]; po, IG 10 mg/kg): 358 ± 109 ng·h/mL; Cmax ([3]; po, IG 10 mg/kg): 31.2 ± 8.8 ng/mL; Tmax ([3]; po, IG 10 mg/kg): 4.67 ± 1.15 h; MRT last ([3]; po, IG 10 mg/kg): 8.15 ± 0.73 h; AUC(0-inf) ([3]; IV 1 mg/kg): 139 ± 9.21 ng·h/mL; AUC(0-t) ([3]; IV 1 mg/kg): 127 ± 9.69 ng·h/mL; Vd ([3]; IV 1 mg/kg): 80.8 ± 8.9 L/kg; MRT last ([3]; IV 1 mg/kg): 5.57 ± 0.053 h
